Test results from patent publication US9113629B2, “4-amino-6-(4-substituted-phenyl)-picolinates and 6-amino-2-(4-substituted-phenyl)-pyrimidine-4-carboxylates and their use as herbicides” (DOW AGROSCIENCES LLC, priority 2013, dated 2015).
Like-named read-outs stand apart in the source and are kept apart here.

What was measured:
[1] = system: Key Grass and Sedge Weeds as well as Grass Crops; assay: Post-emergent Test II herbicidal activity (Table 6); assay type: in vivo; settings: post-emergence, 336 h; for pest or weed control at 70 g/ha: 70 g ai/ha; for pest or weed control at 140 g/ha: 140 g ai/ha
In short: (§1)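 Foliar application at 187 L/ha to greenhouse-grown seedlings (first or second true leaf); subirrigation thereafter. Visual 0–100% injury at 14 d relative to untreated plants.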

[2] = system: Key Broadleaf Weed and Crop Species; assay: Post-emergent Test II herbicidal activity (Table 5); assay type: in vivo; settings: post-emergence, 336 h, 14 days after application; for pest or weed control at 70 g/ha: application rate 70 g ai/ha; for pest or weed control at 140 g/ha: application rate 140 g ai/ha
In short: as §1

[3] = CYPES: yellow nutsedge (Cyperus esculentus), read-out: Visual Growth Reduction (%) 14 Days After Application, CYPES
[4] = DIGSA: crabgrass (Digitaria sanguinalis), read-out: Visual Growth Reduction (%) 14 Days After Application, DIGSA
[5] = ECHCG: barnyardgrass (Echinochloa crus-galli), read-out: Visual Growth Reduction (%) 14 Days After Application, ECHCG
[6] = ORYSA: rice (Oryza sativa), crop, read-out: Visual Growth Reduction (%) 14 Days After Application, ORYSA
[7] = SETFA: giant foxtail (Setaria faberi), read-out: Visual Growth Reduction (%) 14 Days After Application, SETFA
[8] = SORVU: grain sorghum (Sorghum vulgare), read-out: Visual Growth Reduction (%) 14 Days After Application, SORVU
[9] = TRZSS (wheat, Triticum aestivum), crop, read-out: Visual Growth Reduction (%) 14 Days After Application, TRZSS
[10] = ZEAMX: maize, corn (Zea mays), crop, read-out: Visual Growth Reduction (%) 14 Days After Application, ZEAMX
[11] = ABUTH: velvetleaf (Abutilon theophrasti), read-out: Visual Growth Reduction (%) 14 Days After Application, ABUTH
[12] = AMARE: redroot pigweed (Amaranthus retroflexus), read-out: Visual Growth Reduction (%) 14 Days After Application, AMARE
[13] = BRSNN: oilseed-rape, canola (Brassica napus), read-out: Visual Growth Reduction (%) 14 Days After Application, BRSNN
[14] = CHEAL: lambsquarters (Chenopodium album), read-out: Visual Growth Reduction (%) 14 Days After Application, CHEAL
[15] = EPHHL: wild poinsettia (Euphorbia heterophylla), read-out: Visual Growth Reduction (%) 14 Days After Application, EPHHL
[16] = HELAN: sunflower (Helianthus annuus), read-out: Visual Growth Reduction (%) 14 Days After Application, HELAN
[17] = VIOTR: wild pansy (Viola tricolor), read-out: Visual Growth Reduction (%) 14 Days After Application, VIOTR

Nc1c(F)c(-c2ccc(Cl)c(F)c2)nc(C(=O)O)c1Cl [Compound 217]
pest or weed control at 70 g/ha [1, 3]: 85 to 94%
pest or weed control at 140 g/ha [1, 3]: 85 to 94%
pest or weed control at 70 g/ha [1, 4]: 85 to 94%
pest or weed control at 140 g/ha [1, 4]: 85 to 94%
pest or weed control at 70 g/ha [1, 5]: 95 to 100%
pest or weed control at 140 g/ha [1, 5]: 95 to 100%
pest or weed control at 70 g/ha [1, 6]: 60 to 74%
pest or weed control at 140 g/ha [1, 6]: 75 to 84%
pest or weed control at 70 g/ha [1, 7]: 95 to 100%
pest or weed control at 140 g/ha [1, 7]: 95 to 100%
pest or weed control at 70 g/ha [1, 8]: 85 to 94%
pest or weed control at 140 g/ha [1, 8]: 85 to 94%
pest or weed control at 70 g/ha [1, 9]: 75 to 84%
pest or weed control at 140 g/ha [1, 9]: 75 to 84%
pest or weed control at 70 g/ha [1, 10]: 85 to 94%
pest or weed control at 140 g/ha [1, 10]: 95 to 100%
pest or weed control at 70 g/ha [2, 11]: 95 to 100%
pest or weed control at 140 g/ha [2, 11]: 95 to 100%
pest or weed control at 70 g/ha [2, 12]: 95 to 100%
pest or weed control at 140 g/ha [2, 12]: 95 to 100%
pest or weed control at 70 g/ha [2, 13]: 85 to 94%
pest or weed control at 140 g/ha [2, 13]: 95 to 100%
pest or weed control at 70 g/ha [2, 14]: 95 to 100%
pest or weed control at 140 g/ha [2, 14]: 95 to 100%
pest or weed control at 70 g/ha [2, 15]: 95 to 100%
pest or weed control at 140 g/ha [2, 15]: 95 to 100%
pest or weed control at 70 g/ha [2, 16]: 95 to 100%
pest or weed control at 140 g/ha [2, 16]: 95 to 100%
pest or weed control at 70 g/ha [2, 17]: 95 to 100%
pest or weed control at 140 g/ha [2, 17]: 95 to 100%
melting point: 159 to 161 °C
